This is an account of results in patent US10202584B2, “Red-shifted luciferase-luciferin pairs for enhanced bioluminescence” (The Regents of the University of California, priority 2016, dated 2019).

Read-outs that look alike come from different tables or passages of the source.

The subject of series [1] is purified luciferases. The experiment in a line: In vitro bioluminescence intensity with purified recombinant proteins. The settings on record: assayed with NanoLuc. The series is classed as biochemical. From the text:
(§1) Signals were integrated until the substrates were completely consumed.

Series [2] has as its system BALB/c mice. The experiment in a line: Bioluminescence imaging in deep tissues of live mice (hydrodynamic transfection). Format: in vivo. From the text: FIG. 2 is a panel showing bioluminescence imaging of luciferase-luciferin pairs at superficial sites and in deep tissues of live mice. […] The group numbers in panel 2b are aligned with those in panel 2a. Two injection sites (one for luciferase-expressing cells and one for empty vehicle controls) for each mouse are illustrated with red arrows. […] Data are shown as mean and s.d. (n=3). […] Data are shown as mean and s.d. (n=4 for teLuc, Antares, and Antares2 with 3.3 μmol substrates, and n=3 for all other groups).
FIG. 16 is a graph of bioluminescence kinetics of IP injected luciferins (3.3 μmol each) in hydrodynamically transfected mice.
Hydrodynamic transfections were performed on BALB/c mice as described elsewhere. Briefly, 20 μg of each luciferase-expressing plasmid in sterilized saline (volume equivalent to 9% bodyweight of the treated mouse) was injected into restrained mice via the tail vein over 4-8 sec. Mice were allowed to recover on heat pads and were monitored until their breathing rate returned to normal. […] To inject 3.3 μmol DTZ or furimazine, the total volumes were increased to 500 μL. […] The Fiji image analysis software was used to process images and derive integrated intensities.

Series [3] relates to HEK 293T cells. The experiment in a line: Evaluation of the cytotoxicity of luciferins. As for the experimental part:
(§2) FIG. 15 is a panel showing the evaluation of the cytotoxicity of various luciferins. (15a) Viability of HEK 293T cells determined using RealTime-Glo™ MT Cell Viability Assay (Promega) after incubation with individual luciferin substrates for 24 h at 37° C. (15b) Evaluation of cell morphology and staining of dead cells. Cells incubated with the indicated luciferins for 24 h at 37° C. were stained with propidium iodide (PI), a fluorescent dye for dead cells.
(§3) Cell viability was determined using RealTime-Glo™ MT Cell Viability Assay (Promega) after incubation of HEK 293T cells with individual luciferin substrates for 24 h at 37° C. Cell morphology was further evaluated using microscopy. Briefly, HEK 293T cells in 35-mm culture dishes were washed twice with 400 μL DPBS pre-warmed to 37° C., and further incubated in 500 μL DPBS containing 20 μg/mL propidium iodide (PI), a fluorescent stain for dead cells, at room temperature for 15 min under light-shielded conditions. Cells were further rinsed with pre-warmed 300 μL DPBS three times to remove residual PI. Cells in 300 μL DPBS were next analyzed on a Motic AE31 microscope equipped with a 100 W Short-Arc Mercury lamp, a 540/25 nm excitation filter, a 565 nm longpass dichroic mirror, and a 605/55 nm emission filter.

Series [4] deals with luciferase-expressing HEK 293T cells. The experiment in a line: Bioluminescence imaging of intact luciferase-expressing HEK 293T cells. The series is classed as cell-based, Human. The settings on record: FLuc-expressing HEK 293T cells, millimolar substrate.
Source text: Images were acquired without a filter (1c) or with a 695±25 nm NIR emission filter (1e). Panels 2d and 2f are quantification results for Panels 2c and 2e, respectively. […] Data are shown as mean and s.d. of three independent experiments.
Data are shown as mean and s.d. of three independent experiments.
HEK 293T (purchased from ATCC and tested for mycoplasma by PCR), which is one of the most widely used and readily transfectable cell lines, was used for all tissue culture transfections. HEK 293T cells were cultured at 37° C. with 5% CO2 in Dulbecco's Modified Eagle's Medium (DMEM) supplemented with 10% fetal bovine serum (FBS). Transfection mixtures were prepared with 3 μg of plasmid DNA and 9 μg of PEI (polyethylenimine, linear, MW 25 kDa) in DMEM and incubated for 20 min at room temperature. The medium was first aspirated, and subsequently, the transfection mixtures were added to cells at 70% confluency on 35-mm culture dishes seeded one day prior to transfection. […]
The number and density of cells in DPBS suspension were determined using a hemocytometer. […] To use the luminescence dark box to directly image cells, we added luciferase-expressing HEK293T cells (2000 cells per well with ˜70% transfection efficiency) and the corresponding luciferin substrates into wells of a white-wall, 96-well plate. […] All images were analyzed using the Fiji image analysis software [1].
For series [5], the target named is Rluc8 (Renilla reniformis, UniProt P27652, A143M/A55T/C124A/K136R/M185V/M253L/S130A/S287L). The conditions noted are these: RLuc mutant Rluc8; cited from earlier work.
Sequence of Rluc8 (P27652 whole entry A55T/C124A/S130A/K136R/A143M/M185V/M253L/S287L): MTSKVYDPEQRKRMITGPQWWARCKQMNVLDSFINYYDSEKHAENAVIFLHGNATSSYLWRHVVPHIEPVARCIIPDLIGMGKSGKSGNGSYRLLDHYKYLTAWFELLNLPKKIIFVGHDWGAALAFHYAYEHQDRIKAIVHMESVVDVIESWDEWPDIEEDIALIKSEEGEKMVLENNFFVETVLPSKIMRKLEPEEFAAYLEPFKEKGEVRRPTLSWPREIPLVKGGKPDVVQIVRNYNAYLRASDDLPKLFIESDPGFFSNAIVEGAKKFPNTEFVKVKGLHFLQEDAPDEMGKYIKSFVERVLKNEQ
Series [6] deals with NanoLuc (Oplophorus gracilirostris, UniProt Q9GV45, A31E/A60N/A81I/F95D/I117V/K70R/L54V/L99Q/M102K/N193R/P142E/Q151K/Q38R/Q45L/V71I/Y165I). The settings on record: cited from earlier work.
Sequence of NanoLuc (Q9GV45 28-196 with tags or gaps with the stated changes limits assumed): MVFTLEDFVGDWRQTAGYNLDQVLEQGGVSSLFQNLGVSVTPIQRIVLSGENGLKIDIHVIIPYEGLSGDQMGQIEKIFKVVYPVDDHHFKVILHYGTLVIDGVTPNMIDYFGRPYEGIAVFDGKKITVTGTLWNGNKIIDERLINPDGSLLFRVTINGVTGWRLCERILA
Series [7] deals with HEK 293T cells. Nature of the series: Cytotoxicity of luciferins (RealTime-Glo MT Cell Viability Assay; propidium iodide staining). The series is classed as cell-based. The settings on record: 24 h at 37° C., millimolar concentrations. The method, then: as §2, §3
Series [8] concerns the target NanoLuc luciferase (Oplophorus gracihrostris-derived, parent, SEQ ID NO: 1) (Oplophorus gracilirostris, UniProt Q9GV45, A31E/A60N/A81I/F95D/I117V/K70R/L54V/L99Q/M102K/N193R/P142E/Q151K/Q38R/Q45L/V71I/Y165I). Nature of the series: Apparent Michaelis constant and kcat, purified NanoLuc, bioluminescence. The conditions noted are these: kcat=Imax/(QY*[E]); assay buffer pH 6.0; mean ± s.d., n = 3.
Source text: (§4) The final concentrations of all enzymes were 100 pM.
as §1

Series [9] addresses Antares (NanoLuc fused to CyOFP1) (Oplophorus gracilirostris, UniProt Q9GV45). The experiment in a line: Apparent Michaelis constant and kcat, Antares, bioluminescence. The conditions noted are these: assay buffer pH 6.0, mean ± s.d., n = 3. Format: biochemical.
Source text: as §4
(9a) Primary structural arrangement of Antares and Antares2.
as §1

Series [10] has as its target ReNL (NanoLuc fused to fluorescent protein) (Oplophorus gracilirostris, UniProt Q9GV45). Nature of the series: Apparent Michaelis constant and kcat, ReNL, bioluminescence. The series is classed as biochemical. The settings on record: assay buffer pH 6.0, mean ± s.d., n = 3.
Source text: as §4, §1

Where [11] appears, read: apparent, 100 pM enzyme, substrate 0.78 to 50 μM.

Sequence of Antares (NanoLuc fused to CyOFP1) (Q9GV45 28-196): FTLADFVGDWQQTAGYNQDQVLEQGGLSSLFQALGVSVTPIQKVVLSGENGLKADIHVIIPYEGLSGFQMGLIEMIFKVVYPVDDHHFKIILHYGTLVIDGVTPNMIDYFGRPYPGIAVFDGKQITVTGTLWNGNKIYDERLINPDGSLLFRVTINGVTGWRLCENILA
Sequence of ReNL (NanoLuc fused to fluorescent protein) (Q9GV45 28-196): as above
Sequence of NanoLuc luciferase (Oplophorus gracihrostris-derived, parent, SEQ ID NO: 1) (Q9GV45 28-196 A31E/Q38R/Q45L/L54V/A60N/K70R/V71I/A81I/F95D/L99Q/M102K/I117V/P142E/Q151K/Y165I/N193R, looked up): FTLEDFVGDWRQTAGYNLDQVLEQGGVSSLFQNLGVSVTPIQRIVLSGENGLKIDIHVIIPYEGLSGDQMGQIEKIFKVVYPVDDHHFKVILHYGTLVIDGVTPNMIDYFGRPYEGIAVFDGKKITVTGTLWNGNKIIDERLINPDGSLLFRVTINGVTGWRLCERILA

With `O=c1c(Cc2ccccc2)nc2c(-c3ccccc3)[nH]c(-c3ccccc3)cn1-2` [DTZ, diphenylterazine], the “brightness relative to furimazine” value in series [1] is listed as “reduced brightness”. In addition, the “bioluminescence kinetics after intraperitoneal injection” value in series [2] (3.3 μmol, hydrodynamically transfected mice) is reported as “extended kinetics”. Moreover, the “background emission in untransfected BALB/c mice” value in series [2] (DTZ injection) was “did not yield any background emission”. Further, the cell toxicity result in series [3] (HEK 293T cells, 24 h at 37° C., RealTime-Glo MT Cell Viability Assay) is recorded as “minimal cell toxicity at millimolar concentrations”.
AkaLumine-HCl: in series [4], the “bioluminescence intensity with FLuc compared with teLuc or Antares2 with micromolar DTZ” value is listed as 1-2 orders of magnitude lower. In series [3], the cell toxicity result was “induced cell death”. Besides, the “cytotoxicity by propidium iodide staining of dead cells” value (“cytotoxicity” for short) in [3] (HEK 293T cells, 24 h at 37° C.) is on record as “further confirmed by the red fluorescence of PI”.
Regarding 6-pi-OH-CTZ, in [5], the “red-shift of Rluc8 bioluminescence” value was 47 nm. Further, the “bioluminescence with NanoLuc” value in series [6] is given as “hardly any bioluminescence”.
`O=c1c(Cc2ccccc2)nc2c([Se]c3ccccc3)[nH]c(-c3ccccc3)cn1-2` [STZ, 2-benzyl-6-phenyl-8-(phenylselanyl)imidazo[1,2-a]pyrazin-3(7H)-one]: the “brightness relative to furimazine” value in series [1] is given as “reduced brightness”. In addition, in series [3], the cell toxicity result is recorded as “induced cell death” and the “cytotoxicity” value was “further confirmed by the red fluorescence of PI”.
Turning to `O=C(O)[C@H]1CSC(c2nc3ccc(O)cc3s2)=N1` [D-luciferin], the “bioluminescence intensity with FLuc compared with teLuc or Antares2 with micromolar DTZ” value in series [4] is 1-2 orders of magnitude lower.
As to `O=c1c(Cc2ccccc2)nc2c(-c3ccccc3)[nH]c(-c3ccccc3)cn1-2` [DTZ], the cell toxicity entry in [7] is recorded as “minimal cell toxicity”.
Turning to `O=c1c(Cc2ccco2)nc2c(Cc3ccccc3)[nH]c(-c3ccccc3)cn1-2` [furimazine], the kcat came to 88.2 ± 1.7 s⁻¹ in series [8], 112 ± 2 s⁻¹ in series [9] (kcat=Imax/(QY*[E])) and 104 ± 4 s⁻¹ in [10] (kcat=Imax/(QY*[E])). For the same compound, the cell toxicity entry in series [3] is listed as “induced cell death”. The “cytotoxicity” value in [3] (HEK 293T cells, 24 h at 37° C.) is on record as “further confirmed by the red fluorescence of PI”. Besides, the Km in series [9] (setting [11]) amounted to 11.1 ± 0.5 µM; in [10] (setting [11]), 14.5 ± 1.3 µM.
